This is an account of results in US11780851B2, “LRRK2 inhibitors” (H. Lundbeck A/S, priority 2021, dated 2023).

For orientation: IC50 means the point on the concentration scale where inhibition reaches its midpoint. As a reminder, the CLint scaled is a measure of how fast metabolising enzymes remove a compound, apart from limits set by blood flow. As a reminder, the Kp is the ratio of the level in a tissue or fluid to that in plasma or blood.

For one series, the target named is T1, LRRK2 G2019S (Homo sapiens, UniProt Q5S007, G2019S).
T1 construct: purchased Invitrogen (Life Technologies Corporation)
T1 sequence (Q5S007 970-2527 G2019S): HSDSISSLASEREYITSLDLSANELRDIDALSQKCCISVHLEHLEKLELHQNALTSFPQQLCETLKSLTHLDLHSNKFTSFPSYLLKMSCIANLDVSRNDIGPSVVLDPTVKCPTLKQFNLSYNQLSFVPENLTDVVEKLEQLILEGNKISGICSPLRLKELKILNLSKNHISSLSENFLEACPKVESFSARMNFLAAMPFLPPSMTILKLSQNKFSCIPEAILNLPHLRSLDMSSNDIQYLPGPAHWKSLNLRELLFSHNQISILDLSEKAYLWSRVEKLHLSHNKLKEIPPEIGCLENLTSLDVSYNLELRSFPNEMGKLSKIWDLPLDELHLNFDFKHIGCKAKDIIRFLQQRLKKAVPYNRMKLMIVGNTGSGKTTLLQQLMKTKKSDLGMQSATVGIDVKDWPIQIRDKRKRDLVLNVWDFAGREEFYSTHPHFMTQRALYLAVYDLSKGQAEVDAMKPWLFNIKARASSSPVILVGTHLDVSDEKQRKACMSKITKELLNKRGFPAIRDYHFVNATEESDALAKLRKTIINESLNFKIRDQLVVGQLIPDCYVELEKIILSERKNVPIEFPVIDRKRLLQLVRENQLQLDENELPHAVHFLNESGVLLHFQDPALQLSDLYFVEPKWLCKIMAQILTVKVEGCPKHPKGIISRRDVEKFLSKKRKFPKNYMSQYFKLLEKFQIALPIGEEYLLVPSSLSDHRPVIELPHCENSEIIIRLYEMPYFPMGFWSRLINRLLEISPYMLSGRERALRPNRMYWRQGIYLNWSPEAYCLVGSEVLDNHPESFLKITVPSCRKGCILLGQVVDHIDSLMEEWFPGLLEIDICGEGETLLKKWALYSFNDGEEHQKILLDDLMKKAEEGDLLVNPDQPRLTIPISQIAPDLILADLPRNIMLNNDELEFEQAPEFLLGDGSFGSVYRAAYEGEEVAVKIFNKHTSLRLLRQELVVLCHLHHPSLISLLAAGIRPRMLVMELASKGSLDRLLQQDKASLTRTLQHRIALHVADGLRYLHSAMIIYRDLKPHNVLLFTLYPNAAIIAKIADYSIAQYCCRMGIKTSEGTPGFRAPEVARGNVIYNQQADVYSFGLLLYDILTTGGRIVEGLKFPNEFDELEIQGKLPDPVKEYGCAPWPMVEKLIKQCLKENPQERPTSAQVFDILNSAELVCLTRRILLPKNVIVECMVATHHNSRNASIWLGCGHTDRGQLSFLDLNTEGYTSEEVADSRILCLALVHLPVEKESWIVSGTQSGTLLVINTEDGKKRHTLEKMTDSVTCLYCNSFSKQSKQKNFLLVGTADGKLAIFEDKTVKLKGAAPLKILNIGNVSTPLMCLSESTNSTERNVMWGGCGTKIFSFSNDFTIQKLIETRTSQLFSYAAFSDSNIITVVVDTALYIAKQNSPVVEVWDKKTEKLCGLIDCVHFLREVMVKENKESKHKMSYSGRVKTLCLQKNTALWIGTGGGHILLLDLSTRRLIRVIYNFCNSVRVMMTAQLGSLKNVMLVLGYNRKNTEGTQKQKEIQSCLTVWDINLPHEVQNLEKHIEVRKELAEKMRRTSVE
Description: LRRK2 G2019S kinase activity assay (LanthaScreen TR-FRET). Type of series: biochemical. As to conditions: 250 pM LRRK2 G2019S, 1.3 mM ATP, 3 h at 30° C.; n≥2 tests. In a few lines: (§1)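 TR-FRET measured phosphorylation of fluorescein-ERM LRRKtide by human LRRK2 residues 970–2527, wild-type or G2019S, detected with a terbium anti-phospho-LRRKtide antibody. The 520/495 nm ratio was normalized to uninhibited and inhibitor controls. IC50 came from a Hill fit, log-averaged over independent experiments.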
On the technique in general: In TR-FRET formats the signal depends on donor and acceptor labels being close together.

Series [1] can be described thus: Hepatocyte intrinsic clearance assay. Format: in vitro ADME, human. The settings on record: human, pooled donor, cryopreserved hepatocytes, pH 7.4, 0.1 μM, 2 h at 37° C., 1×10^6 hepatocytes/mL; * measured on 3 separate occasions, ** on a single occasion. On the procedure:
Test compounds (final concentration 0.1 μM, 0.05% organic) were incubated for 2 h at 37° C., with shaking, in supplemented Leibovitz L-15 media (pH7.4) containing commercially sourced, pooled donor, cryopreserved hepatocytes (final concentration 1×10^6 hepatocytes/m L). The CLint reactions (350 μL) were initiated by addition of test compound. Aliquots (25 μL) were taken at 1, 5, 10, 15, 30, 60, 90 and 120 minutes and then protein crashed with ice-cold acetonitrile containing internal standard (150 μL) then centrifuged (1960 g for 20 minutes at 4° C.). Supernatant was diluted (1:4) with deionized water then analyzed by liquid chromatography (LC)-tandem mass spectrometry (MS/MS). The intrinsic clearances (CLint) were calculated from the slope (k) of the linear regressions of percentages of compound remaining in incubation against incubation time, according to equations 2 and 3.

Series [2] is described as follows: Free fraction in plasma (equilibrium dialysis). Format: in vitro ADME, male Sprague-Dawley rat. The settings on record: rat plasma, 1 μM, 5 h at 37° C. As to the method: The free fractions in male Sprague-Dawley rat or female Gottingen minipig plasma (fuplasma) and rat brain homogenate (fubrain) were determined by equilibrium dialysis using 96-well HTD-dialysis plates with dialysis membranes (molecular weight cut off 12-14 KDa). One side of the HTD-dialysis plate was loaded with matrix (plasma or brain homogenate) and the other side with buffer (100 mM sodium phosphate buffer, pH 7.4). Test compounds were dissolved in DMSO then spiked (5 μL of 0.2 mM) into blank (995 μL) plasma or diluted brain homogenate (1:4 ratio in phosphate buffer) giving a final nominal concentration 1 μM (≤0.5% DMSO). The matrices were loaded into respective chambers and equilibrated against phosphate buffer for 5 h at 37° C. (in a humidified air incubator with 5% CO2 with shaking). Samples from both chambers (buffer and plasma or brain homogenate) were aliquoted to fresh 96-well polypropylene plates then matrix matched using an equal volume of opposite blank matrix before extraction with cold solvent (3 volumes acetonitrile) containing an appropriate bioanalytical internal standard. After centrifugation (20 min, 3200 g, 4° C.) the supernatants were diluted with appropriate volumes of water and compound concentrations were quantified by LC/MS-MS against matrix matched calibration standards. The fuplasma and fubrain were calculated as a percent free according to equation 4 below.
Where [F] is the analyte concentration on the buffer (receiver) side of the membrane; [T] is the analyte concentration on the plasma or brain (donor) side of the membrane; [TO] is the analyte concentration in the plasma or brain sample at time zero; D is matrix dilution factor which is determined as 4 for brain matrix and 1 for plasma matrix in these assays.

Series [3] is described as follows: Rat B/P (brain disposition). Format: in vivo, male Sprague-Dawley rats. The settings on record: male, Sprague-Dawley, oral gavage 10 mg/kg; for concentration at 0.5 h / Kp uu at 0.5 h / Kp at 0.5 h: time point 0.5 h; for concentration at 0.5 h / Kp at 0.5 h / concentration at 1 h / Kp at 1 h: mean ± stdev; for Kp uu at 0.5 h / Kp at 0.5 h / Kp uu at 1 h / Kp at 1 h: brain/plasma; for Kp uu at 0.5 h / Kp uu at 1 h: fubrain from brain homogenate; for Kp at 0.5 h / Kp at 1 h: n = 3; for concentration at 1 h / Kp uu at 1 h / Kp at 1 h: time point 1.0 h. As to the method:
Brain disposition was evaluated for each compound in male Sprague-Dawley rats (n=3, standard body weight). […] Isolated plasma and brain homogenates were extracted by standard protein precipitation in acetonitrile, containing internal standard, followed by LC-MS/MS analysis using an optimized analytical method. Concentrations of test compound in plasma and brain were quantified against matrix matched calibration standards. The total plasma and brain concentration data are presented in Table 7 alongside the calculated brain Kp (total brain concentration:total plasma concentration ratio).

A further series addresses T2, LRRK2 WT (Homo sapiens, UniProt Q5S007).
T2 construct: comprises residue 970 to 2527 of the full length human wild-type LRRK2 kinase; purchased Invitrogen (Life Technologies Corporation)
The series can be described thus: LRRK2 wild-type kinase activity assay (LanthaScreen TR-FRET). Format: biochemical. The settings on record: 1 nM LRRK2 WT, 1.3 mM ATP, 3.5 h at 30° C.; n≥2 tests. Summed up:
as §1

[4] abbreviates: brain, n = 3, read-out: Total brain concentration.
[5] abbreviates: plasma, n = 3, read-out: Total plasma concentration.

Where two headings read alike, the source gives them in different places.

T2 sequence (Q5S007 970-2527): as the sequence (Q5S007 970-2527 G2019S) above, with S1050G counted along it

`Cc1c2c(nn1[C@H]1CCOC(C)(C)C1)OCCCn1nc(Cl)c3cnc(nc31)N2` (single isomer, unassigned) [Example 42, (+)-(R) or (S)-8-Chloro-2-(2,2-dimethyltetrahydro-2H-pyran-4-yl)-3-methyl-2,4,12,13-tetrahydro-11H-5,7-(azenometheno)dipyrazolo[3,4-b:5′,1′-g][1]oxa[4,6,8]triazacycloundecine]: the IC50 came out at 2.9 nM on LRRK2 G2019S and 7.9 nM at LRRK2 WT. The CLint scaled at 0.1 μM in series [1] is 6.33 mL/min/kg. Also, the “fuplasma (% free)” value in series [2] turned out to be 21.7 % free. Also, the concentration at 0.5 h in series [3] (setting [4]) stood at 550 ± 283 ng/g; in series [3] (setting [5]) it was 295 ± 145 ng/mL. The Kp uu at 0.5 h in series [3] was found to be 0.32 ± 0.05. The same compound had a Kp at 0.5 h in series [3] of 1.88 ± 0.31.
As for `Cc1c2c(nn1[C@H]1C[C@@H](C)O[C@@H](C)C1)OCCCn1nc(Cl)c3cnc(nc31)N2` [Example 41, 8-chloro-2-((2R,4r,6S)-2,6-dimethyltetrahydro-2H-pyran-4-yl)-3-methyl-2,4,12,13-tetrahydro-11H-5,7-(azenometheno)dipyrazolo[3,4-b:5′,1′-g][1]oxa[4,6,8]triazacycloundecine], the IC50 on LRRK2 G2019S was determined as 6.4 nM; at LRRK2 WT, 17 nM. Moreover, in series [1], the CLint scaled at 0.1 μM was 5.67 mL/min/kg. Besides, in series [2], the “fuplasma (% free)” value is recorded as 25.2 % free. Moreover, the concentration at 0.5 h in series [3] (setting [4]) stood at 620 ± 30 ng/g; in series [3] (setting [5]), 250 ± 24 ng/mL. In series [3], the Kp at 0.5 h came out at 2.5 ± 0.31.
`Cc1c2c(nn1[C@@H]1CCOC[C@H]1F)OCCCn1nc(Cl)c3cnc(nc31)N2` (single isomer, unassigned) [Example 31, (−)-8-Chloro-2-((3S,4R) or (3R,4S)-3-fluorotetrahydro-2H-pyran-4-yl)-3-methyl-2,4,12,13-tetrahydro-11H-5,7-(azenometheno)dipyrazolo[3,4-b:5′,1′-g][1]oxa[4,6,8]triazacycloundecine]: the IC50 on LRRK2 G2019S was found to be 2.4 nM; at LRRK2 WT it was 5.6 nM. Further, the CLint scaled at 0.1 μM in series [1] was less than 4.17 mL/min/kg. The “fuplasma (% free)” value in series [2] was 24.9 % free. For the same compound, the concentration at 1 h came out at 215 ± 70 ng/g in series [3] (setting [4]) and 133 ± 54 ng/mL in series [3] (setting [5]). In series [3], this compound returned a Kp uu at 1 h of 0.5 ± 0.04. In addition, the Kp at 1 h in series [3] came out at 1.65 ± 0.13.
Turning to `Cc1c2c(nn1[C@H]1CCCOCC1)OCCCn1nc(Cl)c3cnc(nc31)N2` (single isomer, unassigned) [Example 29, (−)-(R) or (S)-8-Chloro-3-methyl-2-(oxepan-4-yl)-2,4,12,13-tetrahydro-11H-5,7-(azenometheno)dipyrazolo[3,4-b:5′,1′-g][1]oxa[4,6,8]triazacycloundecine], the IC50 was 4.3 nM on LRRK2 G2019S and 14 nM on LRRK2 WT. The CLint scaled at 0.1 μM in series [1] is 6.33 mL/min/kg.
The corresponding values for `CCc1c2c(nn1[C@H]1CC[C@H](OC)CC1)OCCCn1nc(Cl)c3cnc(nc31)N2` [Example 57, 8-Chloro-3-ethyl-2-((1r,4r)-4-methoxycyclohexyl)-2,4,12,13-tetrahydro-11H-5,7-(azenometheno)dipyrazolo[3,4-b:5′,1′-g][1]oxa[4,6,8]triazacycloundecine] are 6.2 nM, 16 nM and 8.5 mL/min/kg.
As to `Cc1c2c(nn1[C@@H]1C[C@H]3CC[C@@H](C1)O3)OCCCn1nc(Cl)c3cnc(nc31)N2` [Example 44, 2-((1R,3s,5S)-8-Oxabicyclo[3.2.1]octan-3-yl)-8-chloro-3-methyl-2,4,12,13-tetrahydro-11H-5,7-(azenometheno)dipyrazolo[3,4-b:5′,1′-g][1]oxa[4,6,8]triazacycloundecine], the concentration for half-maximal inhibition (IC50) on LRRK2 G2019S amounted to 4.3 nM; at LRRK2 WT, 13 nM. Further, in series [1], the CLint scaled at 0.1 μM was less than 4 mL/min/kg. In addition, the “fuplasma (% free)” value in series [2] is 25.5 % free. The figures for the concentration at 0.5 h in series [3] (setting [4]) and in series [3] (setting [5]) were 731 ± 223 ng/g and 468 ± 117 ng/mL, respectively. In addition, the Kp uu at 0.5 h in series [3] was found to be 0.3 ± 0.04. In series [3], the Kp at 0.5 h was determined as 1.56 ± 0.23.
For the compound `Cc1c2c(nn1[C@H]1CC[C@H](F)CC1)OCCCn1nc(Cl)c3cnc(nc31)N2` [Example 25, 8-Chloro-2-((1r,4r)-4-fluorocyclohexyl)-3-methyl-2,4,12,13-tetrahydro-11H-5,7-(azenometheno)dipyrazolo[3,4-b:5′,1′-g][1]oxa[4,6,8]triazacycloundecine], the IC50 was determined as 5.1 nM on LRRK2 G2019S and 16 nM at LRRK2 WT. Further, the “fuplasma (% free)” value in series [2] amounted to 12.0 % free. Besides, the concentration at 1 h is 110 ± 18 ng/g in series [3] (setting [4]) and 38 ± 6 ng/mL in series [3] (setting [5]). Moreover, in series [3], the Kp at 1 h stood at 2.87 ± 0.04. Moreover, in series [3] (po, 10 mg/kg), the Kp uu at 1 h worked out at 0.65 ± 0.01.
Regarding `Clc1nn2c3nc(ncc13)Nc1c(nn(C3CCOCC3)c1C1CC1)OCCC2` [Example 10, 8-Chloro-3-cyclopropyl-2-(tetrahydro-2H-pyran-4-yl)-2,4,12,13-tetrahydro-11H-5,7-(azenometheno)dipyrazolo[3,4-b:5′,1′-g][1]oxa[4,6,8]triazacycloundecine], the values for the half-inhibitory concentration (IC50) on LRRK2 G2019S and at LRRK2 WT were 6.2 nM and 19 nM, respectively. Moreover, in series [2], the “fuplasma (% free)” value came out at 30.2 % free. The concentration at 1 h in series [3] (setting [4]) is 502 ± 92 ng/g; in series [3] (setting [5]), 314 ± 83 ng/mL. Also, the Kp at 1 h in series [3] amounted to 1.62 ± 0.16. Further, in series [3] (po, 10 mg/kg), the Kp uu at 1 h amounted to 0.38 ± 0.04.
For `[2H]C([2H])([2H])c1c2c(nn1C1([2H])CCOCC1)OCCCn1nc(Cl)c3cnc(nc31)N2` [Example 15, 8-Chloro-3-(methyl-d3)-2-(tetrahydro-2H-pyran-4-yl-4-d)-2,4,12,13-tetrahydro-11H-5,7-(azenometheno)dipyrazolo[3,4-b:5′,1′-g][1]oxa[4,6,8]triazacycloundecine], the IC50 at LRRK2 G2019S came to 2.4 nM; on LRRK2 WT it was 6.8 nM. Moreover, the CLint scaled at 0.1 μM in series [1] is 4 mL/min/kg.
The corresponding values for `[2H]C([2H])([2H])c1c2c(nn1[C@@H]1CCOC[C@H]1F)OCCCn1nc(Cl)c3cnc(nc31)N2` (single isomer, unassigned) [Example 62, (−)-8-Chloro-2-((3R,4S) or (3S,4R)-3-fluorotetrahydro-2H-pyran-4-yl)-3-(methyl-d3)-2,4,12,13-tetrahydro-11H-5,7-(azenometheno)dipyrazolo[3,4-b:5′,1′-g][1]oxa[4,6,8]triazacycloundecine] are 5.9 nM, 17 nM and less than 4 mL/min/kg.
`[2H]C([2H])([2H])c1c2c(nn1[C@H]1CCCOCC1)OCCCn1nc(Cl)c3cnc(nc31)N2` (single isomer, unassigned) [Example 58, (+)-(R) or (S)-8-Chloro-3-(methyl-d3)-2-(oxepan-4-yl)-2,4,12,13-tetrahydro-11H-5,7-(azenometheno)dipyrazolo[3,4-b:5′,1′-g][1]oxa[4,6,8]triazacycloundecine]: the 50% inhibitory concentration (IC50) at LRRK2 G2019S worked out at 7 nM; on LRRK2 WT it was 19 nM. Moreover, the CLint scaled at 0.1 μM in series [1] was 5 mL/min/kg.
